Reference: patent US9556183B2, “Substituted pyrazolylpyrazole derivative and use of same as herbicide” (KYOYU AGRI CO., LTD., priority 2013, dated 2017)

Key:
Type in all cases: in vivo
Rice plants = assay: Paddy herbicidal activity test, phytotoxicity to transplanted rice; details: rice transplanted at 2.0 leaf stage, 30 days
Protocol: (§1) Rice paddy soil was filled into a 1/10000 are pot followed by the addition of suitable amounts of water and chemical fertilizer, kneading, seeding with Echinochloa crus-galli, Monochoria vaginalis and Scirpus juncoides and maintaining in an irrigated state at a water depth of 3 cm. Wettable powder of Target Compound (I) shown in Table 1 prepared in compliance with the preparation examples were diluted with a suitable amount of water, rice plants in the 2.0 leaf stage were transplanted during 3.5 leaf stage of Echinochloa crus-galli, and treated by dropping in chemical in the prescribed amount per are using a pipette. After treating for 30 days in a glass greenhouse at an average atmospheric temperature of 30° C., the herbicidal efficacy thereof was investigated. Evaluation of herbicidal efficacy was carried out by comparing growth inhibition rate (%) with an untreated group, while evaluation of phytotoxicity was carried out by comparing growth inhibition rate (%) with the state of a complete eradication group, and were evaluated at 11 levels indicated below. [table]

Monochoria vaginalis = assay: Paddy herbicidal activity test; details: irrigated paddy pot, 30 days
Protocol: as §1

Scirpus juncoides = assay: Paddy herbicidal activity test; details: irrigated paddy pot, 30 days
Protocol: as §1

Echinochloa crus-galli = assay: Paddy herbicidal activity test; details: irrigated paddy pot, treated at 3.5 leaf stage of Echinochloa crus-galli, 30 days
Protocol: as §1

SMILES | phytotoxicity (growth inhibition rate level) Rice plants (Rice plants; 1g a.i./10a) | phytotoxicity (growth inhibition rate level) Rice plants (Rice plants; 5g a.i./10a) | herbicidal efficacy (growth inhibition rate level) Monochoria vaginalis (Monochoria vaginalis; 1g a.i./10a) | herbicidal efficacy (growth inhibition rate level) Monochoria vaginalis (Monochoria vaginalis; 5g a.i./10a) | herbicidal efficacy (growth inhibition rate level) Scirpus juncoides (Scirpus juncoides; 1g a.i./10a) | herbicidal efficacy (growth inhibition rate level) Scirpus juncoides (Scirpus juncoides; 5g a.i./10a) | herbicidal efficacy (growth inhibition rate level) Echinochloa crus-galli (Echinochloa crus-galli; 1g a.i./10a) | herbicidal efficacy (growth inhibition rate level) Echinochloa crus-galli (Echinochloa crus-galli; 5g a.i./10a)
O=[N+]([O-])c1cnn(-c2nn3c(c2Br)CCCC3)c1NCC1CC1 [Compound 158] | 0 (0 (exponent): 0% to less than 10% (growth inhibition rate)) | 0 (0 (exponent): 0% to less than 10% (growth inhibition rate)) | 7 (7: 70% to less than 80%) | 7 (7: 70% to less than 80%) | 8 (8: 80% to less than 90%) | 9 (9: 90% to less than 100%) | 8 (8: 80% to less than 90%) | 9 (9: 90% to less than 100%)
O=C(N(CC1CC1)c1c([N+](=O)[O-])cnn1-c1nn2c(c1Br)CCCC2)C(F)(F)F [Compound 159] | 0 (0 (exponent): 0% to less than 10% (growth inhibition rate)) | 0 (0 (exponent): 0% to less than 10% (growth inhibition rate)) | 7 (7: 70% to less than 80%) | 8 (8: 80% to less than 90%) | 7 (7: 70% to less than 80%) | 8 (8: 80% to less than 90%) | 8 (8: 80% to less than 90%) | 9 (9: 90% to less than 100%)
CC1CC1CN(C(=O)C(F)(F)F)c1c(C#N)cnn1-c1nn2c(c1Cl)CCCC2 (stereo not shown) [Compound 13] | 0 (0 (exponent): 0% to less than 10% (growth inhibition rate)) | 1 (1: 10% to less than 20%) | 8 (8: 80% to less than 90%) | 8 (8: 80% to less than 90%) | 8 (8: 80% to less than 90%) | 8 (8: 80% to less than 90%) | 9 (9: 90% to less than 100%) | 9 (9: 90% to less than 100%)
CC(C1CC1)N(C(=O)C(F)(F)F)c1c(C#N)cnn1-c1nn2c(c1Cl)CCCC2 (stereo not shown) [Compound 14] | 0 (0 (exponent): 0% to less than 10% (growth inhibition rate)) | 0 (0 (exponent): 0% to less than 10% (growth inhibition rate)) | 7 (7: 70% to less than 80%) | 7 (7: 70% to less than 80%) | 7 (7: 70% to less than 80%) | 8 (8: 80% to less than 90%) | 8 (8: 80% to less than 90%) | 9 (9: 90% to less than 100%)
O=[N+]([O-])c1cnn(-c2nn3c(c2Cl)CCCC3)c1NCC1CC1 [Compound 114] | 0 (0 (exponent): 0% to less than 10% (growth inhibition rate)) | 0 (0 (exponent): 0% to less than 10% (growth inhibition rate)) | 7 (7: 70% to less than 80%) | 8 (8: 80% to less than 90%) | 8 (8: 80% to less than 90%) | 9 (9: 90% to less than 100%) | 9 (9: 90% to less than 100%) | 9 (9: 90% to less than 100%)
CC(Nc1c(C#N)cnn1-c1nn2c(c1Cl)CCCC2)C1(C)CC1 (stereo not shown) [Compound 8] | 0 (0 (exponent): 0% to less than 10% (growth inhibition rate)) | 0 (0 (exponent): 0% to less than 10% (growth inhibition rate)) | 7 (7: 70% to less than 80%) | 7 (7: 70% to less than 80%) | 7 (7: 70% to less than 80%) | 8 (8: 80% to less than 90%) | 9 (9: 90% to less than 100%) | 9 (9: 90% to less than 100%)
O=C(N(CC1CC1)c1c([N+](=O)[O-])cnn1-c1nn2c(c1Cl)CCCC2)C(F)(F)F [Compound 115] | 0 (0 (exponent): 0% to less than 10% (growth inhibition rate)) | 1 (1: 10% to less than 20%) | 8 (8: 80% to less than 90%) | 8 (8: 80% to less than 90%) | 9 (9: 90% to less than 100%) | 8 (8: 80% to less than 90%) | 8 (8: 80% to less than 90%) | 9 (9: 90% to less than 100%)
N#Cc1cnn(-c2nn3c(c2Cl)CCCC3)c1N(CC1CC1)C(=O)C(F)(F)C(F)(F)F [Compound 3] | 0 (0 (exponent): 0% to less than 10% (growth inhibition rate)) | 0 (0 (exponent): 0% to less than 10% (growth inhibition rate)) | 7 (7: 70% to less than 80%) | 7 (7: 70% to less than 80%) | 7 (7: 70% to less than 80%) | 8 (8: 80% to less than 90%) | 8 (8: 80% to less than 90%) | 8 (8: 80% to less than 90%)
